Legend:
[1] = test system: aldose reductase; conditions: literature; cited from earlier work
[2] = test system: dulcitol accumulation in tissues of galactose-fed rats (aldose reductase inhibiting property); assay: dulcitol accumulation in lens, sciatic nerve and diaphragm of galactosemic rats; format: in vivo, male Sprague-Dawley rats
From the text: Such experiments are exemplified hereinbelow after the listing of the following general comments pertaining to these experiments:
(a) Four or more groups of six male rats, 50-70 g, Sprague-Dawley strain, were used. The first group, the control group, was fed a mixture of laboratory chow (roden Laboratory Chow, Purina) and glucose at 20% (w/w %) concentration. The untreated galactosemic group was fed a similar diet in which galactose is substituted for glucose. The third group was fed a diet prepared by mixing a given amount of the test compound with the galactose containing diet. The concentration of galactose in the diet of the treated groups was the same as that for the untreated galactosemic group.
(b) After four days, the animals were killed by decapitation. The eyeballs were removed and punctured with a razor blade; the freed lenses were rolled gently on filter paper and weighed. The sciatic nerves were dissected as completely as possible and weighed. Both tissues when frozen can be kept up to two weeks before being analyzed for dulcitol.
Only two minor reagent changes were made: (a) The rinsing mixture was an aqueous 5% (w/v) trichloroacetic acid solution and (b) the stock solution was prepared by dissolving 25 mg of dulcitol in 100 ml of an aqueous trichloroacetic acid solution. [N.B.: For each experiment the average value found in the tissue from rats fed the glucose diet was subtracted from the individual values found in the corresponding tissue in galactose-fed rats to obtain the amount of polyol accumulated.] […] In the present case the procedure of Hayman and Kinoshita was modified in that the final chromatography step was omitted in the preparation of the enzyme from bovine lens.
The figures under L, N and D represent the percentage decrease of dulcitol accumulation in the tissues of the lens, sciatic nerve and diaphragm, respectively, for treated rats as compared to untreated rats.

[3] = 26 mg/kg/day in diet, 4 days, vs untreated galactosemic rats

O=C1NC(=O)[C@@]2(CCOc3ccc(F)cc32)N1 [sorbinil, (S)-6-Fluoro-2,3-dihydrospiro(4H-1-benzopyran-4,4'-imidazolidine)-2',5'-dione]
aldose reductase inhibition, in words [1]: aldose reductase inhibiting properties

COc1ccc2c(C(=O)N(C)CC(N)=O)cccc2c1C(F)(F)F [compound 8, N-[[6-Methoxy-5-(trifluoromethyl)-1-naphthalenyl]carbonyl]-N-methylglycinamide]
% lowering dulcitol accumulation in vivo, D (diaphragm) ([2]; diaphragm, 28 mg/kg/day in diet, 4 days, vs untreated galactosemic rats): 42% | % lowering dulcitol accumulation in vivo, N (sciatic nerve) ([2]; 28 mg/kg/day in diet, 4 days, vs untreated galactosemic rats): 66%

O=C(O)CN1C(=O)c2cccc3cccc(c23)C1=O [1,3-Dioxo-1H-benz[de]isoquinoline-2(3H)-acetic acid]
aldose reductase inhibition, in words [1]: effective inhibitor of aldose reductase

COC(=O)NC(=O)CN(C)C(=S)c1cccc2c(C(F)(F)F)c(OC)ccc12 [compound 6, [[[5-(Trifluoromethyl)-6-methoxy-1-naphthalenyl]thioxomethyl](methylamino)acetyl]carbamic acid, Methyl Ester]
% lowering dulcitol accumulation in vivo, N (sciatic nerve) ([2]; 8.4 mg/kg/day in diet, 4 days, vs untreated galactosemic rats): 33% | % lowering dulcitol accumulation in vivo, N (sciatic nerve) [2, 3]: 93%

COC(=N)NC(=O)CN(C)C(=S)c1cccc2c(C(F)(F)F)c(OC)ccc12 [compound 4, N--[[[[5-(trifluoromethyl)-6-methoxy-1-naphthalenyl]thioxomethyl]-N--methylamino]acetyl]carbamimidic acid, methyl ester]
% lowering dulcitol accumulation in vivo, N (sciatic nerve) [2, 3]: 62%

COc1ccc2c(C(=S)N(C)CC(=O)N(C)C)cccc2c1C(F)(F)F [compound 3, 2-[[[6-Methoxy-5-(trifluoromethyl)-1-naphthalenyl]thioxomethyl]methylamino]-N,N-dimethylacetamide]
% lowering dulcitol accumulation in vivo, N (sciatic nerve) ([2]; 55 mg/kg/day in diet, 4 days, vs untreated galactosemic rats): 48%

COc1ccc2c(C(=S)N(C)CC(N)=O)cccc2c1C(F)(F)F [compound 1, N-[[5-(trifluoromethyl)-6-methoxy-1-naphthalenyl]-thioxomethyl]-N-methylglycinamide]
in vivo results compared with compound No. 9 (tolrestat) ([2]; 5 mg/kg/day): comparable results | % lowering dulcitol accumulation in vivo, N (sciatic nerve) ([2]; 5 mg/kg/day in diet, 4 days, vs untreated galactosemic rats): 54%

From patent US4672059A, “N-[[5-(trifluoromethyl)-6-methoxy-1-naphthalenyl]-thioxomethyl and carbonyl]-N-methylglycinamides” (American Home Products Corporation, priority 1985, dated 1987)
